Patent US10287265B2, “Enantiomers of 8-hydroxyquinoline derivatives and the synthesis thereof” (AVIDIN Co. Ltd., priority 2015, dated 2019)
Entries after “also recorded” stand apart in the source; their conditions may differ.

Columns and labels:
PGK1 gene = assay: Gene expression in primary astrocytes by qRT-PCR; assay type: cell-based, rat; conditions: in the cells
Method: (§1) Pure astrocyte culture was obtained from neonatal rats according to the protocol found in literature (Protocols for Neural Cell Culture 2001, pp 117-127. ch 9. Ruth Cole, Jean de Vellis. Preparation of Astrocyte, Oligodendrocyte, and Microglia Cultures from Primary Rat Cerebral Cultures). Astrocytes (1 million) were cultured in 100 mm TC-treated culture dishes (Orange Scientific, Belgium) in an incubator set at 37° C. and 5% CO2 with humid air. The R-enantiomeric derivative according to Example 2 was added to cells in two final concentrations: 330 nM and 1000 nM. Cells were also treated with 1000 nM PBT2 which bears the basic structure of the R-enantiomer according to Example 2 (8-hydroxy-quinoline ring) but contains conformational differences and was developed for the treatment of neurodegenerative disorders (Pub. No.: WO/2004/007461). Treatments were carried out with a 100 μM DMSO-based stock solution. Control cells were treated with the same amount of DMSO without the agent. Each treatment was conducted in three separate culture dishes. After treatment, cells were incubated at 37° C. for 3 h, then the medium was removed, cells were washed with PBS and total RNA was extracted from cells with the Accuzol™ Total RNA Extraction Solution (Bioneer, Daejeon, South Korea), according to the manufacturer's protocol. cDNA transcription was carried out with the High Capacity cDNA Reverse Transcription Kit (Life Technologies, Foster City, Calif., USA). During the test, the expression of four genes (PGK1, EPO, HMOX-1, VEGF) controlled by HIF1a was determined by qRT-PCR, with HPRT gene serving as a control. Relative expression of genes in treated samples was compared to untreated controls. The PCR was conducted with a LightCycler® Nano Instrument (Roche, Budapest, Hungary) in the presence of UPL (Universal Probe Library) probes (HPRT: 95, HMOX1: 4, EPO: 16, VEGF: 1, PGK1: 66), specific primers (HPRT1: 5′-gaccggttctgtcatgtcg-3′, HPRT2: 5′-[…]-3′; HMOX1-1: 5′-[…]-3′, HMOX1-2: 5′-ctgcagctcctcaaacagc-3′; EPO1: 5′-[…]-3′, EPO2: 5′-ccttctgcacagcccatt-3′; VEGF1: 5′-[…]-3′, VEGF2: 5′-[…]-3′; PGK1-1: 5′-[…]-3′, PGK1-2: 5′-gacttggctccattgtcca-3′) in 20 μl PCR reaction volume with 20 ng cDNA template and 10 μl Lightcycler DNA Probes Master (5×) Reagent Kit (Roche) according to the following protocol: activation of enzyme at 95° C. for 10 min, 50 cycles: denaturation at 95° C. for 15 sec, hybridization and polymerization, then detection at 60° C. for 30 sec.

EPO gene [1] = assay: Gene expression in primary astrocytes by qRT-PCR; assay type: cell-based, rat; conditions: 3 h, Example 2 at 330 nM and 1000 nM, PBT2 at 1000 nM
Method: as §1

HMOX-1 gene = assay: Gene expression in primary astrocytes by qRT-PCR; assay type: cell-based, rat; conditions: 3 h, Example 2 at 330 nM and 1000 nM, PBT2 at 1000 nM
Method: as §1

erythropoietin protein = assay: Erythropoietin protein expression in hippocampus and cortex of aged animals, chronic treatment, ELISA; assay type: in vivo, mouse; conditions: 18-month-old C57BL/6 female mice, 20 mg/l in drinking water for four months
Method: Twenty-four 18-month-old female C57BL/6 mice (Innovo Ltd., Budapest, Hungary) were treated according to the experimental setup described in Example 34. in two groups: Group 1—control group given normal drinking water, Group 2—treated with the R-enantiomer according to Example 2, administered in drinking water (20 mg/l) for four months. Brain preparation was carried out under conditions described in Example 34. Brain samples were washed with 1×PBS to remove blood, then tissues were homogenized in 1×PBS and for 3 days, they were held at −20° C. overnight and 25° C. at daytime every day. After the third round of thawing, samples were centrifuged (5 min, 5000 rpm) and the supernatant was collected for further protein expression studies. Determination of erythropoietin levels of samples was done with Quantikine® ELISA Mouse Erythropoetin (R&D Systems, cat. no.: MEPOOB) according to the manufacturer's protocol. At the end of the test, the developed colour was measured with a THERMO-LABSYSTEMS Multiskan FC Absorbance Plate Reader at 450 nm. Results obtained through ELISA and measured at 450 nm were compared to standard dilution series of purified mouse EPO. Values (pg/ml) obtained based on the dilution series were compared to actual protein content of tissues. Protein content of tissue homogenates was measured with Nanodrop-1000 adjusted for BSA protein, at 280 nm.

EPO gene [2] = assay: Erythropoietin gene expression in hippocampus and cortex of aged animals, chronic treatment, qRT-PCR; assay type: in vivo, mouse; conditions: 18-month-old C57BL/6 female mice, 20 mg/l in drinking water for four months
Method: Twenty-four 18-month-old C57BL/6 female mice (Innovo Ltd., Budapest, Hungary) were divided into two groups randomly: Group 1—untreated control, Group 2—treated with the R-enantiomer according to Example 2, administered in drinking water (20 mg/l) for four months. From both groups, 10-10 mice were sacrificed by CO2 inhalation. […]
To study gene expression, total RNA was extracted from the brain tissues with Accuzol™ Total RNA Extraction Solution (Bioneer, Daejeon, South Korea), according to the manufacturer's protocol. cDNA transcription was carried out with the High Capacity cDNA Reverse Transcription Kit (Life Technologies, Foster City, Calif., USA). Expression of the gene coding for erythropoietin, the EPO gene was determined by qRT-PCR (with HPRT gene serving as a control) with the method and instrument described in Example 33. but here, mouse-specific UPL probes (HPRT: 95, EPO: 16) and primer pairs were applied (mouse HPRT1: 5′-tcctcctcagaccgctttt-3′, mouse HPRT2: 5′-[…]-3′; mouse EPO1: 5′-[…]-3′, mouse EPO2: 5′-cttctgcacaacccatcgt-3′).

For Cc1ccnc(N[C@H](c2ccc(C(F)(F)F)cc2)c2ccc3cccnc3c2O)n1 [Example 2, 7-[(R)-[(4-Methylpyrimidin-2-yl)amino][4-(trifluoromethyl)phenyl]methyl]quinolin-8-ol], the “increase of PGK-1 gene activity” value (PGK1 gene) was “capable to increase the gene activity”, the “activation of EPO gene expression” value (EPO gene [1]) was “capable to increase the gene activity; also recorded: highest inductive effect; also recorded: dose-dependent and robust activation” and the “activation of HMOX-1 gene expression” value (HMOX-1 gene) was “capable to increase the gene activity; also recorded: caused the induction of HMOX-1 in astrocytes; also recorded: dose-dependent and robust activation”. The “EPO protein levels in hippocampal and cortical samples compared to untreated control mice” value (erythropoietin protein) was “induced increased EPO protein levels in both hippocampal and cortical samples” and the “EPO gene expression in hippocampus and cortex compared to untreated control mice” value (EPO gene [2]) was “resulted increased EPO gene activity in cerebral cortex and hippocampus; also recorded: induced both hippocampal and cortical EPO expression”.
